Reference: patent publication US20260217699A1, “BERBERINE TAUROURSODEOXYCHOLATE COMPOSITIONS AND METHODS THEREOF” (SHENZHEN HIGHTIDE BIOPHARMACEUTICAL LTD., priority 2023, published 2026)

How the values were obtained:
Assay type in all cases: in vivo, Sprague-Dawley rats
[1] = system: microglia (Iba-1) positive cells; assay: Immunofluorescence staining of Iba-1 in Str and SN brain regions; settings: Mean ± SEM, N=15; for Iba-1 staining SN positive cells num.: Model 397.8 ± 21.2; for Iba-1 staining Str positive cells num.: Model 668.3 ± 13.0
Procedure: (§1) After the rat was anesthetized, the abdominal cavity and thorax were cut open with straight scissors to expose the heart. The blood was first flushed out with normal saline perfusion, and then paraformaldehyde was used for initial perfusion fixation. The head was cut off, and the brain case was carefully opened with tweezers, and the brain tissue was removed and placed in paraformaldehyde solution and fix for 24 h; on the second day, took out the brain tissue and placed in 20% sucrose solution for 24 h; on the third day, took out the brain tissue and placed in 30% sucrose solution for 24 h; on the fourth day, took out the brain tissue and placed in 35% sucrose solution for 24 h (increase the time or concentration appropriately according to the condition of sugar deposition in the brain tissues); took out the brain tissue, embedded it in OCT embedding agent, and cut brain slices at the thickness of […] with a freezing microtome.
(§2) Immunohistochemical staining of TH and Iba-1 was performed on the sections. Sections were rewarmed for 30 min, closed at room temperature for 1 h with 50% serum+0.3% TritonX-100 in 50 μL per slice, shook off the slices, added primary antibody (diluted in PBS), overnight at 4° C.; rewarmed for 30 min; washed off primary antibody (PBS), 5 min×3 times; added secondary antibody (diluted in PBS) by backlighting, room temperature for 2 h; washed off secondary antibody (PBS), 5minx 3 times; added (4′,6-diamidino-2-phenylindole) (DAPI), and stayed at room temperature for 10 min; washed off DAPI, 5 min×3 times; added 70% glycerol to seal the slices to avoid air bubbles. Observed and took pictures under a microscope. Selected basically the same target brain area for each slice. Afterwards, ImageJ was used to count the signal number or area of the entire slice.
(§3) Experimental Methods: Seventy 180-220g SD male rats were selected and fed for one week for accumulation, and the PD model was established by stereotactic unilateral injection of 6-OHDA in the Substantia Nigra (SN) and Striatum (Str) regions and were randomly divided into five groups according to their body weights including Madopar group (Madopar, 50 mg/kg), BTUDC-L group (BTUDC, 100 mg/kg), BTUDC-M group (BTUDC, 500 mg/kg), and BTUDC-H group (BTUDC, 1000 mg/kg), with 10 animals in each group. Another 10 SD male rats were taken for sham operation (only 4 μL of 0.9% NS containing 0.02% ascorbic acid was given to the SN and Str brain regions during modeling) as the Sham group. The drug was administered by gavage once daily continuously for 21 days starting on the second day of modeling (first day of dosing, D1). General observation was made during the dosing period. At the end of the administration, the test articles were evaluated for tolerance in this model and in behavioral apomorphine—asymmetric rotation test, beam test, rotarod test and grip strength test, immunofluorescence staining (TH, Ibal), and cerebrospinal fluid inflammatory factor assays to evaluate the pharmacodynamic effects of the test articles. Inflammatory factors tested included interleukin 6 (1L-6), inflammatory factor […], Tumor Necrosis Factor alpha (TNF-α), inflammatory assays were done in a total of 4 groups included Sham, Model, Madopar and BTUDC-H groups.
(§4) Dosing volume: 10 mL/kg • 1. General observation: During the period of drug administration, body weight, food intake test and cage side observation were conducted every 3 days. • 2. Behavioral test: After 21 days of administration, behavioral test was carried out on the following day. • 3. […]

[2] = system: tyrosine hydroxylase (TH)-positive cells; assay: Immunofluorescence staining of TH in Str and SN brain regions; settings: Mean ± SEM, N=15; for TH staining SN positive cells num.: Model 0.9 ± 0.5; for TH staining Str Fluorescence intensity: Model 11.1 ± 3.0
Procedure: as §1, §2, §3, §4

[3] = system: 6-OHDA Stereotactic Injection Induced PD Rats; assay: Grip strength test; settings: for Peak Grip Strength: Mean ± SEM, N=10, Model 558.334 ± 10.175, p<0.001 vs Model
Excerpt: The rats were respiratory anesthetized with isoflurane; the head was fixed to ensure that there was no movement and the brain surface was adjusted to be flat; the head was shaved, and a skin incision was made along the sagittal suture to expose the fontanel point; the glass electrode was positioned to the fontanel, and the axes of the coordinate monitor were zeroed to locate the brain areas of the SN and the Str based on the coordinates, in which the SN: AP=−5.0 mm; ML=−1.9 mm; DV=−8.5 mm, and Str: AP=+0.5 mm; ML=−3.0 mm; DV=−6.0 mm. […]; slowly inserted the needle into the localized area of SN and Str, waited for 10 min, and then administered the drug of 6-OHDA at a rate of […] for 10 min, and each animal was given […] of each of SN and Str area, and then the needle was slowly withdrawn after the drug was administered for 10 min, and the PD rat model was established.
The animal was placed on the platform with both forelimbs on the gripping pole, followed by grabbing the animal's tail, and pulling it straight back until the pulling force exceeded their gripping force. After the animals lose their grip, the preamplifier automatically recorded the maximum value of the pulling force. After the measurement was completed, the average of the maximum pulling force of each group of animals was calculated to evaluate the rat's locomotor muscle ability. Information on the grip strength test can also be found in the literature (Jeyasingham, et al. 2001 Brain Res Bull. 55(4):541-8).
In this study, 16 Sprague Dawley (SD) male rats 180g-220g were used to establish a PD model by stereotactic unilateral injection of 6-OHDA in the substantia nigra (SN) and striatum (Str) brain areas after one week of acclimatization feeding and were randomly divided into 2 groups of 8 rats each. […]
Experimental Methods: Seventy 180-220g SD male rats were selected and fed for one week for accumulation, and the PD model was established by stereotactic unilateral injection of 6-OHDA in the Substantia Nigra (SN) and Striatum (Str) regions and were randomly divided into five groups according to their body weights including Madopar group (Madopar, 50 mg/kg), BTUDC-L group (BTUDC, 100 mg/kg), BTUDC-M group (BTUDC, 500 mg/kg), and BTUDC-H group (BTUDC, 1000 mg/kg), with 10 animals in each group. […] At the end of the administration, the test articles were evaluated for tolerance in this model and in behavioral apomorphine—asymmetric rotation test, beam test, rotarod test and grip strength test, immunofluorescence staining (TH, Ibal), and cerebrospinal fluid inflammatory factor assays to evaluate the pharmacodynamic effects of the test articles. […]

[4] = BTUDC-H 1000 mg/kg p.o. Qd 21 days, p<0.001 vs Model
[5] = BTUDC-L 100 mg/kg p.o. Qd 21 days, no significance mark
[6] = BTUDC-M 500 mg/kg p.o. Qd 21 days, no significance mark

COc1ccc2cc3[n+](cc2c1OC)CCc1cc2c(cc1-3)OCO2.C[C@H](CCC(=O)NCCS(=O)(=O)[O-])[C@H]1CC[C@H]2[C@@H]3[C@@H](O)C[C@@H]4C[C@H](O)CC[C@]4(C)[C@H]3CC[C@]12C [BTUDC, Berberine tauroursodeoxycholate]
Iba-1 staining SN positive cells num. [1, 4]: 270.0 ± 21.5
Iba-1 staining Str positive cells num. [1, 4]: 556.5 ± 16.2
Iba-1 staining SN positive cells num. [1, 5]: 413.7 ± 42.8
Iba-1 staining Str positive cells num. ([1]; BTUDC-L 100 mg/kg p.o. Qd 21 days, p<0.01 vs Model): 601.7 ± 14.2
Iba-1 staining SN positive cells num. [1, 6]: 393.1 ± 20.1
Iba-1 staining Str positive cells num. ([1]; BTUDC-M 500 mg/kg p.o. Qd 21 days, p<0.01 vs Model): 602.7 ± 9.1
TH staining SN positive cells num. [2, 4]: 12.7 ± 3.1
TH staining Str Fluorescence intensity [2, 4]: 65.8 ± 4.4
TH staining SN positive cells num. [2, 5]: 0.7 ± 0.3
TH staining Str Fluorescence intensity [2, 5]: 19.8 ± 3.5
TH staining SN positive cells num. [2, 6]: 2.0 ± 0.6
TH staining Str Fluorescence intensity ([2]; BTUDC-M 500 mg/kg p.o. Qd 21 days, p<0.001 vs Model): 32.6 ± 5.5
Grip Strength Test Peak grip strength(gf) ([3]; 500 mg/kg QD p.o. 21 days, Model 535.521 ± 15.5632, P < 0.001 vs Model): 757.479 ± 7.5044 gf
Peak Grip Strength ([3]; BTUDC-H 1000 mg/kg p.o. Qd 21 days): 767.101 ± 6.668
Peak Grip Strength ([3]; BTUDC-L 100 mg/kg p.o. Qd 21 days): 711.616 ± 7.934
Peak Grip Strength ([3]; BTUDC-M 500 mg/kg p.o. Qd 21 days): 737.000 ± 8.222
